Data as given in US11701379B2, “In vitro and in vivo intracellular delivery of siRNA via self-assembled nanopieces” (Rhode Island Hospital, priority 2018, dated 2023).

Tested on: MMP-13 mRNA
Assay: MMP-13 molecular beacon validation in chondrocytes with/without IL-1β
Format: cell-based, mouse
Settings: realtime rtPCR
Method: Fluorescence labeled GAPDH molecular beacon and fluorescence labeled MMP-13 molecular beacon or fluorescence labeled scrambled molecular beacon delivered with Nanopieces was added into chondrocytes under standard cell culture conditions or stimulated with 10 ng/mL IL-1β (FIG. 29).
Using an established method (Tyagi et al Nat. Biotech, 1998, 16:49-53), MBs were designed to target mouse MMP-13 or GAPDH mRNA with a fluorophore/quench pair. Scramble sequence MB (Scramble) was verified to not bind with any mouse mRNA via BLAST. In vitro delivery and validation: MBs were delivered into chondrocytes by Nanopieces. Specifically, after stimulation with IL-1β for 24 hours, chondrocytes were co-transfected GAPDH and scramble MBs or GAPDH and MMP-13 MBs via Nanopieces. Real time RT-PCR and fluorescence microscopy were used to verify the stimulation of MMP-13 expression and the successful fluorescence signal resulted from MMP-13 MB.
To test the efficacy of mRNA detection in chondrocytes using MBs delivered by Nanopieces, primary mouse chondrocytes were transfected with MBs either with or without IL-1β treatment. Before IL-1β treatment, the housekeeping GAPDH MB was detected while the MMP-13 MB was not (FIG. 29, left panels). In contrast, after IL-1β treatment, both GAPDH MB and MMP-13 MB were detected, indicating the induction of MMP-13 mRNA levels by IL-1β (FIG. 29, right panels). […]

## IL-1β: cytokine used to stimulate chondrocytes
  up-regulation of MMP-13 mRNA level: about 10 times
